Test results reported in patent US20040055025A1, “Immune response replication in cloned animals” (Infigen, Inc., priority 2002, published 2004).
“Also recorded” adds a separate entry of the source.

How the values were obtained:
[1] = system: ear cells derived from a newborn cloned calf (C188/Firstdown-FB000); assay: Nuclear transfer with lovastatin-treated bovine ear cells: in vitro embryo development; assay type: cell-based; conditions: for Emb. Devel. (% Blastocyst): NT embryos from ear cells treated with lovastatin for 24 hours, day 7 of culture
Method: Mycoplasma free totipotent cells used in the NT procedure, were prepared by cutting out a group of cells from the culture dish using a glass needle. The cells were then incubated in a TL HEPES solution containing from 1 to 3 mg/ml pronase E at approximately 32° C. for 15-60 minutes, the amount of time which was needed in this example to disaggregate the cells. Once the cells were in a single cell suspension they were used for NT within a 2-3 hour period.
Oocytes aspirated from ovaries were matured overnight (16 hours) in maturation medium. Medium 199 (Biowhittaker, Cat #12-119F) supplemented with luteinizing hormone 10 IU/ml (LH; Sigma, Cat #L9773), […] (Sigma, Cat #E8875) and 10% FCS or estrus cow serum, was used. Within 16-17 hours of maturation, the cumulus layer expanded and the first polar bodies were extruded.
In the first NT procedure, young oocytes (16-17 hours in maturation medium) were stripped of their cumulus cell layers and nuclear material stained with Hoechst 33342 5 mg/ml (Sigma, Cat #2261) in TL HEPES solution supplemented with cytochalasin B (7 μg/ml, Sigma, Cat #C6762) for 15 min. Oocytes were then enucleated in TL HEPES solution under mineral oil. A single cell of optimal size (12 to 15 μm) was then selected from a cell suspension and injected into the perivitelline space of the enucleated oocyte. The cell and oocyte membranes were then induced to fuse by electrofusion in a 500 μm chamber by application of an electrical pulse of 90V for 15 μs.
Cybrid activation was induced by a 4 min exposure to 5 μM calcium ionophore A23187 (Sigma Cat. #C-7522) or ionomycin Ca-salt in HECM (hamster embryo culture medium) containing 1 mg/ml BSA followed by a 1:1000 dilution in HECM containing 30 mg/ml BSA for 5 min. For HECM medium, See, e.g., Seshagiri & Barister, 1989, “Phosphate is required for inhibition of glucose of development of hamster eight-cell embryos in vitro,” Biol. Reprod. 40: 599-606. […]

[2] = system: estrus synchronized ewes; assay: Transfer of NT blastocysts from lovastatin-treated ovine cells into recipient ewes: pregnancy outcome
[3] = system: ear cells (SA01-FB) used as nuclear donors; assay: Nuclear transfer with lovastatin-treated ovine ear cells: in vitro embryo development; assay type: cell-based, sheep; conditions: NT embryos from SA01-FB ear cells treated with 5 μM lovastatin for 24 hours; per day of NT
Method: Oocytes were aspirated from sheep ovaries obtained from an abattoir and recovered in TL HEPES medium (Biowhittaker 04-616F) containing 10 mg/ml Heparin (Sigma H-3393) and 4 mg/ml BSA (Sigma A-6003). Aspirations were performed using 20 GA needles with the vacuum set at 60 mm Hg.
Two maturation media were used to produce nuclear transfer pregnancies. Maturation Medium 1: TC199 (Gibco 11150-059), 2 mM Glutamine (Sigma G-5763), 10% FBS (Hyclone A-111D), 5 mg/ml ovine FSH (Sigma L-8174), 5 mg/ml ovine LH (Sigma L-5269), 1 mg/ml Estradiol (Sigma E-2257), 0.3 mM Na-pyruvate (Sigma P-4562), and […] (Sigma M-9768). Maturation Medium 3: TC199 (Gibco 11150-059), 10% FBS (Hyclone A-111D), 10 mg/ml ovine FSH (Sigma L-8174), 10 mg/ml ovine LH (Sigma L-5269), 1 mg/ml Estradiol (Sigma E-2257) and […] (Sigma M-9768).
Typically, oocytes were stripped of cumulus cells after 17 hours in maturation medium by vortexing in 0.5 ml of TL-HEPES. The chromatin was stained with Hoechst 33342 (5 mg/ml, Sigma) in TL-HEPES solution for 15 minutes. Oocytes were then enucleated in TL-HEPES with or without calcium.
All nuclear transfers were performed in TL HEPES containing calcium regardless of what enucleation medium was used. […]

[4] = system: recipients; assay: Transfer of NT blastocysts from lovastatin-treated bovine cells into recipients: pregnancy outcome; assay type: in vivo
Method: After blastomere-oocyte fusion, the cybrids from second generation NT were cultured in CR2 media supplemented with BSA (3 mg/ml) under humidified air with 5% CO2 at 39° C. On the third day of culture, developing embryos were evaluated and cultured further until day seven in CR2 media containing 10% FCS. Morphologically good to fair quality embryos were non-surgically transferred into recipient females.
Similar results were obtained using statin-treated bovine cells in nuclear transfer procedures. […] One or two blastocysts were non-surgically transferred into 5 recipients of which two became pregnant (Table 3).

With CC[C@H](C)C(=O)O[C@H]1C[C@@H](C)C=C2C=C[C@H](C)[C@H](CC[C@@H]3C[C@@H](O)CC(=O)O3)[C@H]21 [lovastatin] the “Emb. Devel. (% Blastocyst)” value [1] was 19%, the “Emb. Devel. (% Blastocyst)” value ([1]; listed as LOVASTATIN) was 19% and the “Number of blastocysts produced by day 7 of culture” value ([1]; lovastatin treated cells used in NT on two different days) was 6. For the same compound, the “Status (of recipient after embryo transfer)” value ([2]; NT blastocysts from lovastatin treated SA01-FB cells transferred into ewe, listed as L0) was “open and Lambed”, the Farrowed/Aborted ([2]; Pregnancy Two, SA01-FB00 lovastatin treated, 4 Day 7 blastocysts transferred, recipient #56) was “farrowed” and the “# of Bl. (blastocysts, day 7)” value [3] was “one and four”. The “Number of recipients that became pregnant” value ([4]; of 5 recipients given one or two blastocysts) was “two” and the Outcome of pregnancies ([4]; two pregnancies from lovastatin treated bovine cells) was “One pregnancy aborted by day 32; also recorded: produced a live calf”.
